Paper PMC7867015, “New Antiproliferative Triflavanone from Thymelaea hirsuta—Isolation, Structure Elucidation and Molecular Docking Studies” (Molecules, 2021)

What was measured:
Type in all cases: cell-based
[1] = SRB cytotoxicity assay, HepG2 cells; conditions: human, read-out: In vitro cytotoxic effect IC50, HepG2
Description: (§1) The cell lines used in this study were purchased from the National Cancer Institute, Cairo, Egypt and maintained in Dulbecco’s Modified Eagle Medium/F-12 (DMEM⁄F12, Sigma-Aldrich, USA), supplemented with 2 mM L-glutamine (Lonza, Belgium) and 10% fetal bovine serum (FBS, Sigma-Aldrich, MO, USA), 1% penicillin-streptomycin (Lonza, Belgium). All cells were cultured following routine tissue culture work, and treated with serial concentrations of the compounds for 48 h. Absorbance was subsequently measured (at 570 nm) using ELISA microplate reader (BIO-RAD, model iMark, Japan). The viability was calculated relative to a control and the IC50 values were determined using the non-linear regression curve fit, as previously reported in [44]
(§2) The cytotoxic activities of the isolated compounds against HepG2, VERO E6, MCF-7 and HCT-116 cells were tested using the sulforhodamine-B (SRB) assay and the results are represented in figure e and Table 2.

[2] = SRB cytotoxicity assay, Vero normal cells; conditions: African green monkey, Vero E6 cells (normal cells), read-out: In vitro cytotoxic effect IC50, Vero
Description: as §1, §2

[3] = test system: Vero cells; test: SRB cytotoxicity assay, Vero normal cells; conditions: 48 h, read-out: In vitro cytotoxic effect IC50, Vero
Description: as §1, §2

[4] = test system: MCF-7 cells; test: SRB cytotoxicity assay, MCF-7 cells; conditions: Homo sapiens, MCF7, 48 h, read-out: IC50 against MCF-7 cells
Description: as §1, §2

[5] = test system: HCT-116 cells; test: SRB cytotoxicity assay, HCT-116 cells; conditions: Homo sapiens, 48 h, read-out: IC50 against HCT-116 cells
Description: as §1, §2

[6] = test system: MCF-7 cells; test: Annexin V/PI staining, flow cytometry (apoptosis); conditions: 48 h
Description: (§3) Apoptosis rate in cells was quantified using annexin V-FITC (BD Pharmingen, San Diego, CA, USA). MCF-7 cells were seeded into 6-well culture plates (3–5 × 10^5 cells/well) and incubated overnight. The cells were then treated with compound 1 for 48 h. Next, media supernatants and cells were collected and rinsed with ice-cold PBS. The next step was suspending the cells in 100 µL of annexin binding buffer solution 25 mM CaCl2, 1.4 M NaCl, and 0.1 M Hepes/NaOH, pH 7.4 and incubation with annexin V-FITC solution (1:100) and propidium iodide (PI) at a concentration of 10 µg/mL in the dark for 30 min. Stained cells were then acquired by a Cytoflex FACS machine. Data were analyzed using cytExpert software v.2.3.

[7] = test system: MCF-7 cells; test: DNA content flow cytometry cell cycle analysis; conditions: 4.26 μM, 48 h
Description: Cell cycle analysis is an important test that determines the percentages of the cell population that are in each cell phase.. In this studyMCF-7 cancer cells were treated with compound 1, and then subjected to DNA flow cytometry to determine the stage where cell proliferation was arrested in the cell cycle.
as §3

[8] = test system: BAX; test: ELISA assay for apoptotic marker BAX in MCF-7 cells; conditions: 4.26 μM, 48 h, control 43.6 pg/mL
Source text: (§4) To further investigate the apoptotic pathway of compound 1 in both untreated and treated MCF-7 cells, we investigated the enzymatic assays for apoptotic markers BAX (EIA-4487, DRG International®, Springfield, NJ, USA) and caspase-9 (EIA-4860, DRG International®, USA) as proapoptotic genes and BCL2 (Cat. No. 99-0042, Zymed®, CA, USA) as the anti-apoptotic gene, following the manufacturer’s instructions.

[9] = test system: caspase-9; test: ELISA assay for apoptotic marker caspase-9 in MCF-7 cells; conditions: 4.26 μM, 48 h, control 5.16 pg/mL
Source text: as §4

[10] = test system: BCL2; test: ELISA assay for anti-apoptotic marker BCL2 in MCF-7 cells; conditions: 4.26 μM, 48 h, control 7.59 ng/mL
Source text: as §4

Row | SMILES | IC50 at 48 h [1] [µM] | IC50 at 48 h [2] [µM] | IC50 [4] [µM] | IC50 [5] [µM] | further results
1 | O=C1c2c(O)cc(O)cc2OC(c2ccc(O)cc2)C1Oc1ccc(C2Oc3cc(O)cc(O)c3C(=O)C2C2C(=O)c3c(O)cc(O)cc3OC2c2ccc(O)cc2)cc1 (centres unmarked) [Compound 1, 2-(4-((5,7-dihydroxy-2-(4-hydroxyphenyl)-4-oxochroman-3-yl)oxy)phenyl)-5,5′,7,7′-tetrahydroxy-2′-(4 hydroxyphenyl)-[3,3′-bichromane]-4,4′-dione] | 8.6 | > 50 | 4.26 | 9.6 | IC50 [3]: 56.6 µM; apoptotic cell death increase ([6]; MCF-7 cells treated at IC50 = 4.26 μM, versus untreated control): 14.97 fold; Apoptosis Late ([6]; MCF-7 cells, 4.26 μM, control 0.23%): 22.52%; Apoptosis Early ([6]; MCF-7 cells, 4.26 μM, control 0.61%): 2.44%; Apoptosis Total (apoptosis ratio) ([6]; MCF-7 cells, 4.26 μM, control 2.71%): 40.57%; Pre-G1 cell population ([7]; control 2.71%): 40.57%; change in cell population in G0/G1, S or G2/M phase ([7]; versus control): no significant change; BAX level [8]: 362 pg/mL; caspase-9 level [9]: 21.14 pg/mL; BCL2 level [10]: 2.85 ng/mL
2 | COc1cc2cc(Oc3ccc4ccc(=O)oc4c3)c(=O)oc2cc1OC [Compound 2, daphnoretin methyl ether] | 12.3 | – | 66.1 | 101 | –
3 | COc1cc2oc(=O)c(Oc3ccc4ccc(=O)oc4c3)cc2cc1O [Compound 3, rutamontine] | 29.8 | > 142 | – | – | –
4 | COc1cc2cc(O)c(=O)oc2cc1Oc1ccc2ccc(=O)oc2c1 [Compound 4, neodaphnoretin] | 27.2 | 124 | – | – | –
5 | COc1cc2cc(Oc3ccc4ccc(=O)oc4c3)c(=O)oc2cc1OC(C)=O [Compound 5, acetyldaphnoretin] | 9.4 | – | 46.4 | 24.4 | –
6 | O=c1ccc2ccc(Oc3cc4cc(O)c(O)cc4oc3=O)cc2o1 [Compound 6, edgeworthin] | 32.5 | > 148 | – | – | –
7 | O=C(C=Cc1ccc(O)cc1)OCC1OC(Oc2c(-c3ccc(O)cc3)oc3cc(O)cc(O)c3c2=O)C(O)C(O)C1O (stereo not drawn) [Compound 8, trans-tiliroside] | 15.1 | 50.5 | – | – | –
8 | O=C(O)c1ccc(O)cc1 [Compound 9, p-hydroxy benzoic acid] | 32.6 | 203 | – | – | –
9 | COc1cccc2c1C(=O)c1c(O)c3c(c(O)c1C2=O)C[C@@](O)(C(=O)CO)C[C@@H]3O[C@H]1C[C@H](N)[C@H](O)[C@H](C)O1 [Doxo, Doxorubicin, reference compound] | 7.7 | 45.8 | – | – | –
